Patent publication US20060142247A1, “Tricyclic heterocycles” (priority 2004, published 2006)

Tested on: HCT 116 cells
Experiment: Viability assay HCT 116 cells (CellTiter-Glo)
Assay type: cell-based
Conditions: Homo sapiens, HCT-116, 120 h, HCT 116 human colon carcinoma cells, 5 days incubation, CellTiter-Glo luminescence
Protocol: Viability Assay—HCT 116 Cells
A viability assay was performed using the CellTiter-Glo® Luminescent Cell Viability Assay (see Promega Corporation's Technical Bulletin No. 288, pp. 1-11 [revised 2/04] which is hereby incorporated by reference in its entirety). This assay is a homogeneous method of determining the number of viable cells in culture based on quantitation of the ATP present, an indicator of metabolically active cells. The assay is designed for use with multiwell formats, making it ideal for automated high-throughput screening (HTS), cell proliferation and cytotoxicity assays. The homogeneous assay procedure involves adding a single reagent (containing luciferase, luciferan substrate, and buffer) directly to cells cultured in serum-supplemented medium. Cell washing, removal of medium and multiple pipetting steps are not required. The system detects as few as 15 cells/well in a 384-well format in 10 minutes after adding reagent and mixing.
The homogeneous “add-mix-measure” format results in cell lysis and generation of a luminescent signal proportional to the amount of ATP present. The amount of ATP is directly proportional to the number of cells present in culture. The above-referenced assay generates a “glow-type” luminescent signal, produced by the luciferase reaction, which has a half-life generally greater than five hours, depending on cell type and medium used. The extended half-life eliminates the need to use reagent injectors and provides flexibility for continuous or batch mode processing of multiple plates. The unique homogeneous format avoids errors that may be introduced by other ATP measurement methods that require multiple steps.
HCT 116 cells (human colon carcinoma, ATCC-No. CCl-247) were cultivated in RPMI 1640 medium with GlutaMAX™ I (cell culture media that contains L-Alanyl-L-Glutamine [a stabilized a form/source of L-Glutamine] from Invitrogen, Cat-No. 61870-010), 2.5% Fetal Calf Serum (FCS, Sigma Cat-No. F4135 (FBS)); 100 Units/ml penicillin/100 μg/ml streptomycin (=Pen/Strep from Invitrogen Cat. No. 15140). For the assay the cells were seeded in 384 well plates, 1000 cells per well, in the same medium. The next day the test compounds were added in various concentrations ranging from 30 μM to 0.0015 μM (10 concentrations, 1:3 diluted). After 5 days the viability assay was done according to the instructions of the manufacturer. In brief: the cell-plate was equilibrated to room temperature for approximately 30 minutes and than the reagent (containing luciferase, luciferan substrate, and buffer) was added. The contents were carefully mixed for 15 minutes to induce cell lysis. After 45 minutes the luminescent signal was measured in Victor 2, (scanning multiwell spectrophotometer, Wallac).
Medium: RPMI 1640 with cell culture media containing L-Alanyl-L-Glutamine [GlutaMAX™ I (Invitrogen, Cat-Nr. 61870)], 5% FCS (Sigma Cat.-No. F4135), Pen/Strep (Invitrogen, Cat No. 15140). • HCT116 (ATCC-No. CCl-247): 1000 cells in 60 μl per well of 384 well plate (Greiner 781098, μClear-plate white) • After seeding incubate plates 24 h at 37° C., 5% CO2 2nd. Day: Induction (Treatment with Compounds, 10 Concentrations):
In order to achieve a final concentration of 30 μM as highest concentration […] of 10 mM compound stock solution were added directly to 163 μl media. Then step e) of the dilution procedure described below, was followed.

Row | SMILES | IC50 [nM]
1 | CC1(C)C(=O)N(CC2CC2)c2cc3[nH]c(-c4n[nH]c5ccccc45)nc3cc21 [Example 1, 5-Cyclopropylmethyl-2-(1H-indazol-3-yl)-7,7-dimethyl-5,7-dihydro-3H-imidazo[4,5-f]indol-6-one] | 100 to 1000
2 | CN1C(=O)C(C)(C)c2cc3nc(-c4n[nH]c5ccccc45)[nH]c3cc21 [Example 4, 2-(1H-indazol-3-yl)-5,7,7-trimethyl-5,7-dihydro-3H-imidazo[4,5-f]indol-6-one] | 100 to 1000
3 | CCN1C(=O)CC(C)(C)c2cc3nc(-c4n[nH]c5ccccc45)[nH]c3cc21 [Example 14, 5-Ethyl-2-(1H-indazol-3-yl)-8,8-dimethyl-3,5,7,8-tetrahydro-imidazo[4,5-g]quinolin-6-one] | 640
4 | CCN(CC)CCN1C(=O)C(C)(C)c2cc3nc(-c4n[nH]c5ccccc45)[nH]c3cc21 [Example 22, 5-(2-Diethylamino-ethyl)-2-(1H-indazol-3-yl)-7,7-dimethyl-5,7-dihydro-3H-imidazo[4,5-f]indol-6-one] | 100 to 1000
5 | CSCCN1C(=O)C(C)(C)c2cc3nc(-c4n[nH]c5ccccc45)[nH]c3cc21 [Example 25, 2-(1H-Indazol-3-yl)-7,7-dimethyl-5-(2-methylsulfanyl-ethyl)-5,7-dihydro-3H-imidazo[4,5-f]indol-6-one] | 100 to 1000
6 | CC1(C)C(=O)N(Cc2nccs2)c2cc3[nH]c(-c4n[nH]c5ccccc45)nc3cc21 [Example 32, 2-(1H-Indazol-3-yl)-7,7-dimethyl-5-thiazol-2-ylmethyl-5,7-dihydro-3H-imidazo[4,5-f]indol-6-one] | 240
7 | CC1(C)C(=O)N(CC(=O)NCc2cccnc2)c2cc3[nH]c(-c4n[nH]c5ccccc45)nc3cc21 [Example 41, 2-[2-(1H-Indazol-3-yl)-7,7-dimethyl-6-oxo-6,7-dihydro-3H-imidazo[4,5-f]indol-5-yl]-N-pyridin-3-ylmethyl-acetamide] | 100 to 1000
8 | CC1(C)C(=O)N(CC(=O)NCc2ccc(F)cc2)c2cc3[nH]c(-c4n[nH]c5ccccc45)nc3cc21 [Example 46, N-(4-Fluoro-benzyl)-2-[2-(1H-indazol-3-yl)-7,7-dimethyl-6-oxo-6,7-dihydro-3H-imidazo[4,5-f]indol-5-yl]-acetamide] | 100 to 1000
9 | COc1cc(CNC(=O)CN2C(=O)C(C)(C)c3cc4nc(-c5n[nH]c6ccccc56)[nH]c4cc32)cc(OC)c1 [Example 47, N-(3,5-Dimethoxy-benzyl)-2-[2-(1H-indazol-3-yl)-7,7-dimethyl-6-oxo-6,7-dihydro-3H-imidazo[4,5-f]indol-5-yl]-acetamide] | 100 to 1000
10 | CC1(C)C(=O)N(CC(=O)NOCc2ccccc2)c2cc3[nH]c(-c4n[nH]c5ccccc45)nc3cc21 [Example 50, N-Benzyloxy-2-[2-(1H-indazol-3-yl)-7,7-dimethyl-6-oxo-6,7-dihydro-3H-imidazo[4,5-f]indol-5-yl]-acetamide] | 100 to 1000
11 | CONC(=O)CN1C(=O)C(C)(C)c2cc3nc(-c4n[nH]c5ccccc45)[nH]c3cc21 [Example 51, 2-[2-(1H-Indazol-3-yl)-7,7-dimethyl-6-oxo-6,7-dihydro-3H-imidazo[4,5-f]indol-5-yl]-N-methoxy-acetamide] | 100 to 1000
12 | CC1(C)C(=O)N(CCNC(=O)c2cccnc2)c2cc3[nH]c(-c4n[nH]c5ccccc45)nc3cc21 [Example 55, N-{2-[2-(1H-Indazol-3-yl)-7,7-dimethyl-6-oxo-6,7-dihydro-3H-imidazo[4,5-f]indol-5-yl]-ethyl}-nicotinamide] | 100 to 1000
13 | CC1(C)C(=O)N(CCNC(=O)C2CC2)c2cc3[nH]c(-c4n[nH]c5ccccc45)nc3cc21 [Example 56, Cyclopropanecarboxylic acid {2-[2-(1H-indazol-3-yl)-7,7-dimethyl-6-oxo-6,7-dihydro-3H-imidazo[4,5-f]indol-5-yl]-ethyl}-amide] | 100 to 1000
14 | CC1(C)C(=O)N(CCNC(=O)N2CCCC2)c2cc3[nH]c(-c4n[nH]c5ccccc45)nc3cc21 [Example 58, Pyrrolidine-1-carboxylic acid {2-[2-(1H-indazol-3-yl)-7,7-dimethyl-6-oxo-6,7-dihydro-3H-imidazo[4,5-f]indol-5-yl]-ethyl}-amide] | 100 to 1000
15 | CN1CCN(C(=O)NCCN2C(=O)C(C)(C)c3cc4nc(-c5n[nH]c6ccccc56)[nH]c4cc32)CC1 [Example 59, 4-Methyl-piperazine-1-carboxylic acid {2-[2-(1H-indazol-3-yl)-7,7-dimethyl-6-oxo-6,7-dihydro-3H-imidazo[4,5-f]indol-5-yl]-ethyl}-amide] | 1000 to 10000
16 | CC1(C)C(=O)N(CCNS(C)(=O)=O)c2cc3[nH]c(-c4n[nH]c5ccccc45)nc3cc21 [Example 61, N-{2-[2-(1H-Indazol-3-yl)-7,7-dimethyl-6-oxo-6,7-dihydro-3H-imidazo[4,5-f]indol-5-yl]-ethyl}-methanesulfonamide] | 100 to 1000
17 | C[S+]([O-])CCN1C(=O)C(C)(C)c2cc3nc(-c4n[nH]c5ccccc45)[nH]c3cc21 (centres unmarked) [Example 64, 2-(1H-Indazol-3-yl)-5-(2-methanesulfinyl-ethyl)-7,7-dimethyl-5,7-dihydro-3H-imidazo[4,5-f]indol-6-one] | 1000 to 10000
18 | CC1(C)C(=O)N(CCS(C)(=O)=O)c2cc3[nH]c(-c4n[nH]c5ccccc45)nc3cc21 [Example 65, 2-(1H-Indazol-3-yl)-5-(2-methanesulfonyl-ethyl)-7,7-dimethyl-5,7-dihydro-3H-imidazo[4,5-f]indol-6-one] | 100 to 1000
19 | CCN1C(=O)C(C)(C)c2cc3nc(-c4n[nH]c5ccc(F)cc45)[nH]c3cc21 [Example 66, 5-Ethyl-2-(5-fluoro-1H-indazol-3-yl)-7,7-dimethyl-5,7-dihydro-3H-imidazo[4,5-f]indol-6-one] | 100 to 1000
20 | CCN1C(=O)C(C)(C)c2cc3nc(-c4n[nH]c5ccc(C(=O)O)cc45)[nH]c3cc21 [Example 69, 3-(5-Ethyl-7,7-dimethyl-6-oxo-3,5,6,7-tetrahydro-imidazo[4,5-f]indol-2-yl)-1H-indazole-5-carboxylic acid] | 100 to 1000
21 | CCN1C(=O)C(C)(C)c2cc3nc(-c4n[nH]c5cc(Br)ccc45)[nH]c3cc21 [Example 70, 2-(6-Bromo-1H-indazol-3-yl)-5-ethyl-7,7-dimethyl-5,7-dihydro-3H-imidazo[4,5-f]indol-6-one] | 100 to 1000
22 | CCN1C(=O)C(C)(C)c2cc3nc(-c4n[nH]c5ccc(C#N)cc45)[nH]c3cc21 [Example 72, 3-(5-Ethyl-7,7-dimethyl-6-oxo-3,5,6,7-tetrahydro-imidazo[4,5-f]indol-2-yl)-1H-indazole-5-carbonitrile] | 100 to 1000
23 | CC1(C)C(=O)Nc2cc3[nH]c(-c4n[nH]c5ccc(C(=O)NCc6ccccc6)cc45)nc3cc21 [Example 77, 3-(7,7-Dimethyl-6-oxo-3,5,6,7-tetrahydro-imidazo[4,5-f]indol-2-yl)-1H-indazole-5-carboxylic acid benzylamide] | 100 to 1000
24 | CCN1C(=O)C(C)(C)c2cc3nc(-c4n[nH]c5ccc(C(=O)NCc6ccccc6)cc45)[nH]c3cc21 [Example 79, 3-(5-Ethyl-7,7-dimethyl-6-oxo-3,5,6,7-tetrahydro-imidazo[4,5-f]indol-2-yl)-1H-indazole-5-carboxylic acid benzylamide] | 100 to 1000
25 | CCN1C(=O)C(C)(C)c2cc3nc(-c4n[nH]c5ccc(C(=O)NCc6cccnc6)cc45)[nH]c3cc21 [Example 81, 3-(5-Ethyl-7,7-dimethyl-6-oxo-3,5,6,7-tetrahydro-imidazo[4,5-f]indol-2-yl)-1H-indazole-5-carboxylic acid (pyridin-3-ylmethyl)-amide; compound with acetic acid] | 100 to 1000
26 | CCN1C(=O)C(C)(C)c2cc3nc(-c4n[nH]c5ccc(C(=O)NCc6ccncc6)cc45)[nH]c3cc21 [Example 82, 3-(5-Ethyl-7,7-dimethyl-6-oxo-3,5,6,7-tetrahydro-imidazo[4,5-f]indol-2-yl)-1H-indazole-5-carboxylic acid (pyridin-4-ylmethyl)-amide; compound with acetic acid] | 1000 to 10000
